These results are taken from patent US9121007B2, “Treatment of bone-related cancers using placental stem cells” (ANTHROGENESIS CORPORATIN, priority 2010, dated 2015).

In the test the test system is osteoclast precursors. The test is described as follows: Osteoclastogenesis from osteoclast precursors with lenalidomide. Format: cell-based. As to the method:
FIG. 15. Therefore, there is a possible synergistic or additive anti-osteoclastogenic effect of PDACs and lenalidomide at concentration of between about 0.1 μM to 1 μM.

Consider `Nc1cccc2c1CN(C1CCC(=O)NC1=O)C2=O` (centres unmarked) [lenalidomide, 3-(4-amino-1-oxo 1,3-dihydro-2H-isoindol-2-yl) piperidine-2,6-dione], for which the “number of osteoclasts that differentiated from the osteoclast precursors” value (0.1 μM or 1 μM lenalidomide with placental stem cells, vs placental stem cells or BM-MSC) is listed as “further decrease the number of osteoclasts”. Also, the “number of osteoclasts formed” value (lenalidomide alone at concentrations around 1 μM) is listed as “steep decline in the number of osteoclasts formed”.
